According to patent publication EP2478902A1, “PHARMACEUTICAL COMPOSITION FOR REDUCING WEIGHT AND METHOD FOR THE PRODUCTION THEREOF” (World-Trade Import-Export Wtie, AG, priority 2009, dated 2011):

Key:
[1] = Comparative, open-label, controlled clinical trial of Orlistat/L-Carnitine (OL-CA) vs Orlistat (OL) and L-Carnitine (CA) in adults with overweight above 10 %; assay type: in vivo, human; conditions: end of treatment (12 weeks), n = 20 per group; for subjects who reached a normal weight: one capsule a day
Procedure: A randomised, parallel, cross-over, prospective, open-label clinical trial.
Male and/or female subjects aged above 18 years, with overweight above 10 % their ideal weight.
• Group 1. Orlistat (OL) 120 mg, one capsule a day for 12 weeks. • Group 2. L-Carnitine (CA) 600 mg, one capsule a day for 12 weeks. • Group 3. Orlistat 120 mg and L-Carnitine 600 mg (OL-CA) in one capsule a day for 12 weeks.
• No other drug therapy was permitted for obesity and overweigh using any administration route during the clinical trial.
• Three treatment groups with random distribution 1:!;1
• Male and/or female subjects over 18 years of age. • Overweight above 10 % of their ideal weight or a Body Mass Index (BMI) of 28 kg/m2 or higher. • Poor response to previous diet therapy. • No participation in a clinical trial with a test drug or device for 30 days before the planned start of treatment. • Patients with or without risk factors associated with obesity (type 2 diabetes and systemic hypertension). • Following a nutritionally balanced and moderately hypocaloric plan containing about 30 % of calories from fat. • Women with child-bearing potential should use some contraceptive method during the treatment.
• Under 18 years of age • History of hypersensitivity to the components of the formula • Patients with any organ failure • Patients with a history of intolerance to lactose • Patients with a history of bowel malabsorption syndrome and cholestasis • Patients with suspected or diagnosed pancreatic disorder • Pregnant and/or nursing women • Diagnosed or suspected thyroid disorder • Patients currently on anticoagulants or cyclosporine and amiodarone.
Randomisation in to the study was stratified at a 1:1:1 ratio. The subjects were classified according to their body mass index. • Group A, 20 subjects with overweight, BMI of 25 to 29.9 kg/m2 • Group B, 20 subjects with grade 2 obesity, BMI of 30-39 kg/m2 • Group C, 20 subjects with grade 3 obesity BMI above 40 kg/m2 With regard to the BMI, the following values and interpretation are given • BMI 20 to 25 kg/m^2 = normal weight • BMI 25 to 29.9 kg/m^2 = Overweight • BMI 30 to 39 kg/m^2 - Grade 2 obesity • BMI above 40 kg/m^2 = Grade 3 obesity

[2] = 15 mg/kg/day of L-Carnitine, 26 weeks, cited from earlier work
[3] = 3,000 mg/day of L-Carnitine, 10 weeks, calorie restriction, increased physical activity; cited from earlier work
[4] = 2,000 mg/day of L-Carnitine, 26 weeks, diet of 1,400 to 1,600 Kcal/day; cited from earlier work

Row | Structure (SMILES) | patients reaching grade 2 obesity [1] [%] | patients reaching grade 2 obesity (number) [1] [subjects] | subjects who documented overweight [1] [%] | subjects who documented overweight (number) [1] [subjects] | subjects who reached a normal weight (number) [1] | subjects with grade 3 obesity [1] [%] | subjects with grade 3 obesity (number) [1] [subjects] | subjects who reached a normal weight [1] [%] | weight loss in the treatment group ([2]; restriction of 1,500 Kcal in diet, 60 subjects with obesity) [kg] | weight loss (significance) [2] | weight loss between the two groups [3] | weight loss or differences between the groups at the end of the study [4]
1 | C[N+](C)(C)C[C@H](O)CC(=O)[O-] [CA, L-Carnitine] | 75 | 15 | 15 | 3 | one | 5 | 1 | 5 | 1.9 | not significant | No significant weight loss | No significant weight loss or differences between the groups
2 | CCCCCCCCCCC[C@@H](C[C@@H]1OC(=O)[C@H]1CCCCCC)OC(=O)[C@H](CC(C)C)NC=O [OL] | 65 | 13 | 10 | 2 | one | 20 | 4 | 5 |  |  |  | 
